Source: patent US7576215B2, “Quinolines and pharmaceutical compositions thereof” (Wyeth, priority 2003, dated 2009)

melting point [°C]	SMILES
123	Oc1cccc(-c2c(-c3ccccc3)cnc3c(C(F)(F)F)cccc23)c1 [Example 391, 3-[3-PHENYL-8-(TRIFLUOROMETHYL)QUINOLIN-4-YL]PHENOL]
100 to 110	COc1cc(C(=O)O)ccc1COc1cccc(-c2c(C(=O)c3ccccc3)cnc3c(C(F)(F)F)cccc23)c1 [Example 515, 4-({3-[3-BENZOYL-8-(TRIFLUOROMETHYL)QUINOLIN-4-YL]PHENOXY}METHYL)-3METHOXY-BENZOIC ACID]
200 to 202	CN(C(=O)c1cnc2c(C(F)(F)F)cccc2c1-c1ccccc1)c1cccc(F)c1 [Example 389, N-(3-FLUOROPHENYL)-N-METHYL-4-PHENYL-8-(TRIFLUOROMETHYL)QUINOLINE-3-CARBOXAMIDE]
192 to 195	O=C(Nc1cccc(-c2c(-c3ccccc3)cnc3c(C(F)(F)F)cccc23)c1)Nc1ccccc1Cl [Example 76, N-(2-CHLOROPHENYL)-N′-{3-[3-PHENYL-8-(TRIFLUOROMETHYL)QUINOLIN-4-YL]PHENYL}UREA]
163 to 165	CN(C(=O)c1cnc2c(C(F)(F)F)cccc2c1-c1ccccc1)c1cccc(C(F)(F)F)c1 [Example 382, N-METHYL-4-PHENYL-8-(TRIFLUOROMETHYL)-N-[3-(TRIFLUOROMETHYL)PHENYL]QUINOLINE-3-CARBOXAMIDE]
211 to 213	CN(C(=O)c1cnc2c(C(F)(F)F)cccc2c1-c1ccccc1)c1cccc(Cl)c1 [Example 384, N-(3-CHLOROPHENYL)-N-METHYL-4-PHENYL-8-(TRIFLUOROMETHYL)QUINOLINE-3-CARBOXAMIDE]
159 to 161	O=C(Nc1cccc(Cl)c1)c1cnc2c(C(F)(F)F)cccc2c1-c1ccccc1 [Example 373, N-(3-CHLOROPHENYL)-4-PHENYL-8-(TRIFLUOROMETHYL)QUINOLINE-3-CARBOXAMIDE]
138 to 140	FC(F)(F)c1cccc2c(-c3ccccc3)c(-c3ccccc3)cnc12 [Example 390, 3,4-DIPHENYL-8-(TRIFLUOROMETHYL)QUINOLINE]
188 to 190	CN(C(=O)c1cnc2c(C(F)(F)F)cccc2c1-c1ccccc1)c1ccccc1 [Example 378, N-METHYL-N,4-DIPHENYL-8-(TRIFLUOROMETHYL)QUINOLINE-3-CARBOXAMIDE]
157 to 159	O=C(Nc1ccc(F)cc1)c1cnc2c(C(F)(F)F)cccc2c1-c1ccccc1 [Example 376, N-(4-FLUOROPHENYL)-4-PHENYL-8-(TRIFLUOROMETHYL)QUINOLINE-3-CARBOXAMIDE]
144	Cc1ccccc1N(C)C(=O)c1cnc2c(C(F)(F)F)cccc2c1-c1ccccc1 [Example 381, N-METHYL-N-(2-METHYLPHENYL)-4-PHENYL-8-(TRIFLUOROMETHYL)QUINOLINE-3-CARBOXAMIDE]
186 to 187	Oc1cccc(-c2c(-c3ccccc3F)cnc3c(C(F)(F)F)cccc23)c1 [Example 458, 3-[3-(2-FLUOROPHENYL)-8-(TRIFLUOROMETHYL)QUINOLIN-4-YL]PHENOL]
163 to 165	Nc1cccc(-c2c(-c3ccccc3)cnc3c(C(F)(F)F)cccc23)c1 [Example 395, {3-[3-PHENYL-8-(TRIFLUOROMETHYL)QUINOLIN-4-YL]PHENYL}AMINE]
252	Oc1cc(-c2c(-c3ccccc3)cnc3c(C(F)(F)F)cccc23)ccc1Cl [Example 392, 2-CHLORO-5-[3-PHENYL-8-(TRIFLUOROMETHYL)QUINOLIN-4-YL]PHENOL]
139 to 141	FC(F)(F)c1cccc2c(-c3ccccc3)c(Sc3ccccc3)cnc12 [Example 411, 4-PHENYL-3-(PHENYLTHIO)-8-(TRIFLUOROMETHYL)QUINOLINE]
50	OCCc1ccc(COc2cccc(-c3c(-c4ccccc4)cnc4c(C(F)(F)F)cccc34)c2)cc1
207 to 208	O=C(Nc1ccccc1)c1cnc2c(C(F)(F)F)cccc2c1-c1ccccc1 [Example 72, N, 4-DIPHENYL-8-(TRIFLUOROMETHYL)QUINOLINE-3-CARBOXAMIDE]

Further lines, the molecule ahead of its results:

SMILES	melting point [°C]
Cc1ccccc1-c1cnc2c(C(F)(F)F)cccc2c1-c1cccc(NC(=O)Nc2ccccc2)c1	192 to 195
COC(=O)c1ccc(COc2cccc(-c3c(C(=O)c4ccccc4)cnc4c(C(F)(F)F)cccc34)c2)c(OC)c1 [Example 507, METHYL-4-({3-[3-BENZOYL-8-(TRIFLUOROMETHYL)QUINOLIN-4-YL]PHENOXY}METHYL)-3-METHOXYBENZOATE]	60 to 63
COC(=O)/C=C/c1ccc(COc2cccc(-c3c(-c4ccccc4)cnc4c(C(F)(F)F)cccc34)c2)cc1	91
Cc1cccc(NC(=O)c2cnc3c(C(F)(F)F)cccc3c2-c2ccccc2)c1 [Example 370, N-(3-METHYLPHENYL)-4-PHENYL-8-(TRIFLUOROMETHYL)QUINOLINE-3-CARBOXAMIDE]	182 to 184
O=C(Nc1ccccc1)Nc1cccc(-c2c(-c3ccccc3)cnc3c(C(F)(F)F)cccc23)c1 [Example 75, N-PHENYL-N′-{3-[3-PHENYL-8-(TRIFLUOROMETHYL)QUINOLIN-4-YL]PHENYL}UREA]	202 to 205
Cc1ccc(N(C)C(=O)c2cnc3c(C(F)(F)F)cccc3c2-c2ccccc2)cc1 [Example 380, N-METHYL-N-(4-METHYLPHENYL)-4-PHENYL-8-(TRIFLUOROMETHYL)QUINOLINE-3-CARBOXAMIDE]	143 to 145
O=C(Nc1ccccc1Cl)c1cnc2c(C(F)(F)F)cccc2c1-c1ccccc1 [Example 374, N-(2-CHLOROPHENYL)-4-PHENYL-8-(TRIFLUOROMETHYL)QUINOLINE-3-CARBOXAMIDE]	173 to 175
O=S(=O)(c1ccccc1)c1cnc2c(C(F)(F)F)cccc2c1-c1ccccc1	149 to 151
FC(F)(F)c1cccc2c(-c3ccccc3)c(Oc3ccccc3)cnc12 [Example 407, 3-PHENOXY-4-PHENYL-8-(TRIFLUOROMETHYL)QUINOLINE]	122
Cc1ccccc1-c1cnc2c(C(F)(F)F)cccc2c1-c1cccc(NC(=O)Nc2ccccc2Cl)c1	224 to 226
CN(C(=O)c1cnc2c(C(F)(F)F)cccc2c1-c1ccccc1)c1ccc(F)cc1 [Example 388, N-(4-FLUOROPHENYL)-N-METHYL-4-PHENYL-8-(TRIFLUOROMETHYL)QUINOLINE-3-CARBOXAMIDE]	138 to 140
Cc1nc2c(C(F)(F)F)cccc2c(-c2ccccc2)c1C(=O)c1ccccc1 [Example 477, [2-METHYL-4-PHENYL-8-(TRIFLUOROMETHYL)QUINOLIN-3-YL](PHENYL)METHANONE]	175 to 177
COc1ccccc1N(C)C(=O)c1cnc2c(C(F)(F)F)cccc2c1-c1ccccc1 [Example 387, N-(2-METHOXYPHENYL)-N-METHYL-4-PHENYL-8-(TRIFLUOROMETHYL)QUINOLINE-3-CARBOXAMIDE]	138
O=C(O)/C=C/c1ccc(COc2cc(-c3c(-c4ccccc4)cnc4c(C(F)(F)F)cccc34)ccc2Cl)cc1	257
O=C(O)c1ccc(COc2cccc(-c3c(-c4ccccc4)cnc4c(C(F)(F)F)cccc34)c2)cc1 [Example 512, 4-({3-[3-PHENYL-8-(TRIFLUOROMETHYL)QUINOLIN-4-YL]PHENOXY}METHYL)BENZOIC ACID]	108 to 112
Cc1ccccc1-c1cnc2c(C(F)(F)F)cccc2c1-c1cccc(N)c1	148 to 151
